Patent US20260284018A1, “DUAL INHIBITORS OF DYRK1A AND 5-HT2 FOR TREATING A BRAIN DISORDER” (THE REGENTS OF THE UNIVERSITY OF CALIFORNIA, priority 2023, published 2026)

Experiments:
[1] = biological target: T1, ACVR1B (Homo sapiens, UniProt P36896); assay: KINOMEscan scanEDGE; assay type: binding; settings: read-out: Percent Control
T1 construct: purchased Eurofins DiscoverX
How it was run: (§1)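 Single-point competition binding screen at 10 μM compound across a 97-kinase panel; values are % activity relative to DMSO control, with lower numbers meaning stronger binding.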

[2] = biological target: T2, ALK (Homo sapiens, UniProt Q9UM73); assay: KINOMEscan scanEDGE; assay type: binding; settings: read-out: Percent Control
T2 construct: purchased Eurofins DiscoverX
How it was run: as §1

[3] = biological target: T3, AURKB (Homo sapiens, UniProt Q96GD4); assay: KINOMEscan scanEDGE; assay type: binding; settings: read-out: Percent Control
T3 construct: purchased Eurofins DiscoverX
T3 sequence (Q96GD4 whole entry): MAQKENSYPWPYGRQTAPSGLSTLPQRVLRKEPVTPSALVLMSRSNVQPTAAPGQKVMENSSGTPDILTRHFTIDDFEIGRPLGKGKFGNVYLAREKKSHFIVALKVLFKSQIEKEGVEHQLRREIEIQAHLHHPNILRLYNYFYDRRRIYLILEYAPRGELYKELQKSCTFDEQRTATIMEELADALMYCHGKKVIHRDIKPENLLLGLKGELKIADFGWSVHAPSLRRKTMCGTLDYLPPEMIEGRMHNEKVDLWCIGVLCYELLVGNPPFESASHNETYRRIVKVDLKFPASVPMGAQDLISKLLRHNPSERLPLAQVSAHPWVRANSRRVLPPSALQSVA
How it was run: as §1

[4] = biological target: T4, CDK11 (Homo sapiens, UniProt Q9BWU1); assay: KINOMEscan scanEDGE; assay type: binding; settings: read-out: Percent Control
T4 construct: purchased Eurofins DiscoverX
How it was run: as §1

[5] = biological target: T5, GSK3B (Homo sapiens, UniProt P49841); assay: KINOMEscan scanEDGE; assay type: binding; settings: read-out: Percent Control
T5 construct: purchased Eurofins DiscoverX
How it was run: as §1

[6] = biological target: T6, IKK-beta (Homo sapiens, UniProt O14920); assay: KINOMEscan scanEDGE; assay type: binding; settings: read-out: Percent Control
T6 construct: purchased Eurofins DiscoverX
How it was run: as §1

[7] = biological target: T7, MEK1 (Homo sapiens, UniProt Q02750); assay: KINOMEscan scanEDGE; assay type: binding; settings: read-out: Percent Control
T7 construct: purchased Eurofins DiscoverX (KINOMEscan scanEDGE service)
How it was run: as §1

[8] = biological target: T8, PIM2 (Homo sapiens, UniProt Q9P1W9); assay: KINOMEscan scanEDGE; assay type: binding; settings: read-out: Percent Control
T8 construct: purchased Eurofins DiscoverX (KINOMEscan scanEDGE service)
T8 sequence (Q9P1W9 whole entry): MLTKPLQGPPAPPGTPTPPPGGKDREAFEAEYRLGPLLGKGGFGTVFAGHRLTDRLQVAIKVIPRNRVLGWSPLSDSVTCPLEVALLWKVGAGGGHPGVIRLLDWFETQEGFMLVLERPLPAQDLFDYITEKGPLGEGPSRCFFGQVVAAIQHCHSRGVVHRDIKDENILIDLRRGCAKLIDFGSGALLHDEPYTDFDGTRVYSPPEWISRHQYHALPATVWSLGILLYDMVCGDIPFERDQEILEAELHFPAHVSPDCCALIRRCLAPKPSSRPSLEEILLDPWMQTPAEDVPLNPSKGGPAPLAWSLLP
How it was run: as §1

[9] = biological target: T9, RSK2(Kin.Dom.1-N-terminal) (Homo sapiens, UniProt P51812); assay: KINOMEscan scanEDGE; assay type: binding; settings: read-out: Percent Control
T9 construct: RSK2(Kin.Dom.1-N-terminal); purchased Eurofins DiscoverX KINOMEscan scanEDGE
How it was run: as §1

[10] = biological target: T10, p38-beta (Homo sapiens, UniProt Q15759); assay: KINOMEscan scanEDGE; assay type: binding; settings: read-out: Percent Control
T10 construct: purchased Eurofins DiscoverX (KINOMEscan scanEDGE service)
How it was run: as §1

[11] = system: cortical neurons; assay: Spinogenesis; assay type: cell-based, rat; settings: cortical neurons (DIV15), 10 μM, 24 h
Procedure: (A) Representative images of cortical neurons (DIV15) treated with compounds (10 μM) for 24 h. (B) Quantification of dendritic spine density (n=29-55 neurons per treatment condition). Data are represented as mean±SEM. *p<0.05, **p<0.01, ***p<0.001, ****p<0.0001, as compared to the vehicle control following a one-way ANOVA with Dunnett's post hoc test. VEH=vehicle (0.2% DMSO).
Spinogenesis. Spinogenesis experiments were performed as previously described with the exception that cells were treated at DIV14 and fixed 24 h after treatment on DIV15. The images were taken on a Nikon HCA confocal microscope with a 100×/NA 1.45 oil objective. Experiments were performed in duplicate with plates prepared using neurons obtained from independent pregnant dams. Images were analyzed by an experimenter blinded to the treatment conditions.

[12] = biological target: T11, ABL1(E255K)-phosphorylated (Homo sapiens, UniProt P00519, E255K); settings: 10 μM; cited from earlier work
T11 construct: purchased Eurofins DiscoverX
T11 sequence (P00519 whole entry E255K): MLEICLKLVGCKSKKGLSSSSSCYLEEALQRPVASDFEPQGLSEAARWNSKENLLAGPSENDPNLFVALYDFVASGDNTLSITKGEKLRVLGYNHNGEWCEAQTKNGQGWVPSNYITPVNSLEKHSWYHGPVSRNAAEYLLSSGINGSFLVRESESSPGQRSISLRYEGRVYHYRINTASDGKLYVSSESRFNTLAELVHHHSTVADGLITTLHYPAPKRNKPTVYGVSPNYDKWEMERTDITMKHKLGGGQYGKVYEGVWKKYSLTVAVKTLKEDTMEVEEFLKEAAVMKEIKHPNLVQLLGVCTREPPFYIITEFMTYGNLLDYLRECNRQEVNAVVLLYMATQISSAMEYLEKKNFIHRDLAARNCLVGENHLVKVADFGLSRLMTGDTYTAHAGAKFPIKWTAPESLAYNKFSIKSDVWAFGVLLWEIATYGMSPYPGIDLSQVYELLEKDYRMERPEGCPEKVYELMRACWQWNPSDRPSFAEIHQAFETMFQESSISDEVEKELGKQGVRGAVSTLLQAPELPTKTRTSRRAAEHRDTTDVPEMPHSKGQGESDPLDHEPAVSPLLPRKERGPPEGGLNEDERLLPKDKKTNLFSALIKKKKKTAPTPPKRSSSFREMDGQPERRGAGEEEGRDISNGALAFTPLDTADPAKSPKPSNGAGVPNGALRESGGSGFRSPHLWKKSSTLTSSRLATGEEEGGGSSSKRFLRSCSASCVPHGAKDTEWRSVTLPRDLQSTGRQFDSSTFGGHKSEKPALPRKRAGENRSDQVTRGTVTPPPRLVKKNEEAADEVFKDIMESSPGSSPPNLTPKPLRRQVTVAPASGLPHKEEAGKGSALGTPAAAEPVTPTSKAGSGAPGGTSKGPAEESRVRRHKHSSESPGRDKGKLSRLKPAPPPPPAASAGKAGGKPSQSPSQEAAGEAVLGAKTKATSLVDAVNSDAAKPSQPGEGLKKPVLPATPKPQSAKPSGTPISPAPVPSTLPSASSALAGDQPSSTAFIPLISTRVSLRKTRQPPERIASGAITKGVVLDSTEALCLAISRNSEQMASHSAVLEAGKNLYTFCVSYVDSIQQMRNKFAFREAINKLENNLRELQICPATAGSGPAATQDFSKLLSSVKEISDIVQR

[13] = biological target: T1, ACVR1B; settings: 10 μM; cited from earlier work
[14] = biological target: T12, AKT1 (Homo sapiens, UniProt P31749); settings: 10 μM; cited from earlier work
T12 construct: purchased Eurofins DiscoverX

[15] = biological target: T13, AKT2 (Homo sapiens, UniProt P31751); settings: 10 μM; cited from earlier work
T13 construct: purchased Eurofins DiscoverX
T13 sequence (P31751 whole entry): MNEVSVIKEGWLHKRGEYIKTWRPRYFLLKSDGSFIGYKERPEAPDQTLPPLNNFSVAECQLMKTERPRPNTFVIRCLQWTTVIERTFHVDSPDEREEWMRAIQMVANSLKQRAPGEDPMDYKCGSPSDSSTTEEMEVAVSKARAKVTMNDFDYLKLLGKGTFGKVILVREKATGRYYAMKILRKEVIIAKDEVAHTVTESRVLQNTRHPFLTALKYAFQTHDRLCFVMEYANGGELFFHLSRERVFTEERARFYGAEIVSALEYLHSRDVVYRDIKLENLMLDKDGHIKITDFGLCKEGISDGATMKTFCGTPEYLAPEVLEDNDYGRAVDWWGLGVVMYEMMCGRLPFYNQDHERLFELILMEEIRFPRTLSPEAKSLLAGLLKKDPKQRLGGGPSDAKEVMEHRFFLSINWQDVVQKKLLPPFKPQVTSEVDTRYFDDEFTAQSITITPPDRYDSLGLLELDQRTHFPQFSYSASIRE

[16] = biological target: T3, AURKB; settings: 10 μM; cited from earlier work
[17] = biological target: T14, AXL (Homo sapiens, UniProt P30530); settings: 10 μM; cited from earlier work
T14 construct: purchased Eurofins DiscoverX

[18] = biological target: T15, BRAF (Homo sapiens, UniProt P15056); settings: 10 μM; cited from earlier work
T15 construct: purchased Eurofins DiscoverX
T15 sequence (P15056 whole entry): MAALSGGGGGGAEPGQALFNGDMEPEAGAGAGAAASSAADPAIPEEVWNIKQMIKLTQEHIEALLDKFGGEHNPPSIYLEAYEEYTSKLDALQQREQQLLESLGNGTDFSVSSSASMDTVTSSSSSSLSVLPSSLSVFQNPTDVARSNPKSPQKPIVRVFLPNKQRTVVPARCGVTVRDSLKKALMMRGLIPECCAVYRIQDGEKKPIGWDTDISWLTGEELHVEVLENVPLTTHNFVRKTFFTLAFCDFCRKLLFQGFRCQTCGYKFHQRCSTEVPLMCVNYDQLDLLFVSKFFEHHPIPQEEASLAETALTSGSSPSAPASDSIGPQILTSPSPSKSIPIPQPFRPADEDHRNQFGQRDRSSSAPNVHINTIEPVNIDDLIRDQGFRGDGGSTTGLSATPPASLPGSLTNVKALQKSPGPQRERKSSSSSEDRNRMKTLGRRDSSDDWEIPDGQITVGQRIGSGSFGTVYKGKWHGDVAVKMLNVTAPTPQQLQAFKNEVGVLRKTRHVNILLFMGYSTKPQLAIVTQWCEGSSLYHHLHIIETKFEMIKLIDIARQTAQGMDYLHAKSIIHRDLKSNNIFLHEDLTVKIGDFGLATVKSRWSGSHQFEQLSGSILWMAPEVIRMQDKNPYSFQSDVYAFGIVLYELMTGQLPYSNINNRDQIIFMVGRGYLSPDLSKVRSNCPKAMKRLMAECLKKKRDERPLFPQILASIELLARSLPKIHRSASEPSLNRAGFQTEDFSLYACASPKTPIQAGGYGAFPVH

[19] = biological target: T16, BRAF(V600E) (Homo sapiens, UniProt P15056, V600E); settings: 10 μM; cited from earlier work
T16 construct: purchased Eurofins DiscoverX
T16 sequence (P15056 whole entry V600E): as the sequence (P15056 whole entry) above, with V600E counted along it

[20] = biological target: T17, BTK (Homo sapiens, UniProt Q06187); settings: 10 μM; cited from earlier work
T17 construct: purchased Eurofins DiscoverX

[21] = biological target: T18, CDK9 (Homo sapiens, UniProt P50750); settings: 10 μM; cited from earlier work
T18 construct: purchased Eurofins DiscoverX

[22] = biological target: T19, DYRK1B (Homo sapiens, UniProt Q9Y463); settings: 10 μM; cited from earlier work
T19 construct: purchased Eurofins DiscoverX

[23] = biological target: T20, IKK-alpha (Homo sapiens, UniProt O15111); settings: 10 μM; cited from earlier work
T20 construct: purchased Eurofins DiscoverX

[24] = biological target: T21, INSR (Homo sapiens, UniProt P06213); settings: 10 μM; cited from earlier work
T21 construct: purchased Eurofins DiscoverX
T21 sequence (P06213 28-1382): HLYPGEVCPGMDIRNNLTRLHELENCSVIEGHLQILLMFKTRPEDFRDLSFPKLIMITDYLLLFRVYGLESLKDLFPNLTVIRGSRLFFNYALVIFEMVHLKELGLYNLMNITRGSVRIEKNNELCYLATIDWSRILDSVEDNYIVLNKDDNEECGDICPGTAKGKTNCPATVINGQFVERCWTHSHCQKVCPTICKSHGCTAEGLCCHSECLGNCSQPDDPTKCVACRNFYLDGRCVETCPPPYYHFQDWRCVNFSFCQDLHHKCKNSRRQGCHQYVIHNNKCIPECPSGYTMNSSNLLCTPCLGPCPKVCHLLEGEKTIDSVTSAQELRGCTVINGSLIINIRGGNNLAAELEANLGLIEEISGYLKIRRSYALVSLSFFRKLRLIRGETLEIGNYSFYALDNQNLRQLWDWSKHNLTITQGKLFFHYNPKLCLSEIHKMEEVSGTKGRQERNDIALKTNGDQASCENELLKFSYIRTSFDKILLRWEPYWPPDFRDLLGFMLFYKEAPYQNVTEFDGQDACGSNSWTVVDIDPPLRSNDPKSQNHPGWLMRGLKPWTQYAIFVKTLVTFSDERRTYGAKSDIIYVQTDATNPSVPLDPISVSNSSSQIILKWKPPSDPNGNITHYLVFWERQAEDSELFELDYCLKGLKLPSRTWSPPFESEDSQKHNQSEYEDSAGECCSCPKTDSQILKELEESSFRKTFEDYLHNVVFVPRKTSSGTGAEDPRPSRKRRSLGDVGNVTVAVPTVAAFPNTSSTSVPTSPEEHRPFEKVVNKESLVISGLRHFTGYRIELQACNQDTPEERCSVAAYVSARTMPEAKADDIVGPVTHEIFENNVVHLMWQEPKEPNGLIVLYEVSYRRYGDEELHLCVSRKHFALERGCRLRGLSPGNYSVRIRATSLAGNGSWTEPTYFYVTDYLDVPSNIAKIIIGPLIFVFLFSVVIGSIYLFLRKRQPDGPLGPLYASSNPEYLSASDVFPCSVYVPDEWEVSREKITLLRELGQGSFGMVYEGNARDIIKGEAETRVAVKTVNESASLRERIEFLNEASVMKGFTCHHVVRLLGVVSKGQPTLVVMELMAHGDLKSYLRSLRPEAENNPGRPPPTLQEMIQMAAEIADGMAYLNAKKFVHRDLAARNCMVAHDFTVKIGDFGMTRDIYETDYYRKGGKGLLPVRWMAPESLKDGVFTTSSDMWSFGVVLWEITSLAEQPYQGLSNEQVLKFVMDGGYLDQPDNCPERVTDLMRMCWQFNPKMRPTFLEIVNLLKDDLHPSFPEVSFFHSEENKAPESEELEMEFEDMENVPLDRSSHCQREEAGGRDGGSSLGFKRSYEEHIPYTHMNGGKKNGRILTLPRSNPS

[25] = biological target: T22, JAK3(JH1domain-catalytic) (Homo sapiens, UniProt P52333); settings: 10 μM; cited from earlier work
T22 construct: JAK3(JH1domain-catalytic); purchased Eurofins DiscoverX

[26] = biological target: T23, LKB1 (Homo sapiens, UniProt Q15831); settings: 10 μM; cited from earlier work
T23 construct: purchased Eurofins DiscoverX (KINOMEscan scanEDGE service)

[27] = biological target: T24, MKNK1 (Homo sapiens, UniProt Q9BUB5); settings: 10 μM; cited from earlier work
T24 construct: purchased Eurofins DiscoverX (KINOMEscan scanEDGE service)

[28] = biological target: T25, PAK2 (Homo sapiens, UniProt Q13177); settings: 10 μM; cited from earlier work
T25 construct: purchased Eurofins DiscoverX (KINOMEscan scanEDGE service)

[29] = biological target: T26, PIK3C2B (Homo sapiens, UniProt O00750); settings: 10 μM; cited from earlier work
T26 construct: purchased Eurofins DiscoverX (KINOMEscan scanEDGE service)

[30] = biological target: T8, PIM2; settings: 10 μM; cited from earlier work
[31] = biological target: T27, PLK1 (Homo sapiens, UniProt P53350); settings: 10 μM; cited from earlier work
T27 construct: purchased Eurofins DiscoverX KINOMEscan scanEDGE

[32] = biological target: T28, ROCK2 (Homo sapiens, UniProt O75116); settings: 10 μM; cited from earlier work
T28 construct: purchased Eurofins DiscoverX KINOMEscan scanEDGE

[33] = biological target: T29, YANK3 (Homo sapiens, UniProt Q86UX6); settings: 10 μM; cited from earlier work
T29 construct: purchased Eurofins DiscoverX KINOMEscan scanEDGE

T1 sequence (P36896 24-505): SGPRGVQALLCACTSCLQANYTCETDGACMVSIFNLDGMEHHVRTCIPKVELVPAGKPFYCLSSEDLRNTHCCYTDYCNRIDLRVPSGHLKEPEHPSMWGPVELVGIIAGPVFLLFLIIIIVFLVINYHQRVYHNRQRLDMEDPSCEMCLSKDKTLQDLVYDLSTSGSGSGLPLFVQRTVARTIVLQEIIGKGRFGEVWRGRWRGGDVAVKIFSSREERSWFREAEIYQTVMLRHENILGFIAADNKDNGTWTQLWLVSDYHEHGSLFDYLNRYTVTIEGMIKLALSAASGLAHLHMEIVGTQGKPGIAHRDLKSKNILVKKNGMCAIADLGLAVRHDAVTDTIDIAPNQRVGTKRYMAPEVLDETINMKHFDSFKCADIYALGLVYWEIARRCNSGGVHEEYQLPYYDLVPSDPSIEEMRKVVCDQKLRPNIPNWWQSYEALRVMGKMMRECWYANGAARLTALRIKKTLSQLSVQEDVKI

COc1ccc2c3ccnc(C)c3n(CCN(C)C)c2c1.O=C(O)/C=C/C(=O)O [HTW_A_8 fumarate, 2-(7-methoxy-1-methyl-9H-pyrido[3,4-b]indol-9-yl)-N,N-dimethylethan-1-amine Fumarate Salt (2:3)]
remaining binding at 10 µM [1]: 83% | remaining binding at 10 µM [2]: 79% | remaining binding at 10 µM [3]: 100% | remaining binding at 10 µM [4]: 95% | remaining binding at 10 µM [5]: 100% | remaining binding at 10 µM [6]: 100% | remaining binding at 10 µM [7]: 87% | remaining binding at 10 µM [8]: 84% | remaining binding at 10 µM [9]: 99% | remaining binding at 10 µM [10]: 98% | dendritic spine density [11]: significantly increases dendritic spine density

COc1ccc2c(c1)[nH]c1c(C)nccc12 [Harmine, harmine]
Percent Control [12]: 74% | Percent Control [13]: 91% | Percent Control [14]: 96% | Percent Control [15]: 80% | Percent Control [16]: 80% | Percent Control [17]: 82% | Percent Control [18]: 100% | Percent Control [19]: 90% | Percent Control [20]: 100% | Percent Control [21]: 67% | Percent Control [22]: 6.1% | Percent Control [23]: 81% | Percent Control [24]: 100% | Percent Control [25]: 61% | Percent Control [26]: 91% | Percent Control [27]: 79% | Percent Control [28]: 47% | Percent Control [29]: 97% | Percent Control [30]: 39% | Percent Control [31]: 93% | Percent Control [32]: 43% | Percent Control [33]: 77%
